Calls of active or inactive are those of the source. No cut-off for these calls is given here.
Columns and labels:
[1] = molecular target: T1, Tyrosinase (Agaricus bisporus) (UniProt O42713); experiment: Inhibition of monophenolase activity of mushroom tyrosinase using L-tyrosine as substrate at 0.2 mM by spectrophotometric assay
T1 sequence (whole entry): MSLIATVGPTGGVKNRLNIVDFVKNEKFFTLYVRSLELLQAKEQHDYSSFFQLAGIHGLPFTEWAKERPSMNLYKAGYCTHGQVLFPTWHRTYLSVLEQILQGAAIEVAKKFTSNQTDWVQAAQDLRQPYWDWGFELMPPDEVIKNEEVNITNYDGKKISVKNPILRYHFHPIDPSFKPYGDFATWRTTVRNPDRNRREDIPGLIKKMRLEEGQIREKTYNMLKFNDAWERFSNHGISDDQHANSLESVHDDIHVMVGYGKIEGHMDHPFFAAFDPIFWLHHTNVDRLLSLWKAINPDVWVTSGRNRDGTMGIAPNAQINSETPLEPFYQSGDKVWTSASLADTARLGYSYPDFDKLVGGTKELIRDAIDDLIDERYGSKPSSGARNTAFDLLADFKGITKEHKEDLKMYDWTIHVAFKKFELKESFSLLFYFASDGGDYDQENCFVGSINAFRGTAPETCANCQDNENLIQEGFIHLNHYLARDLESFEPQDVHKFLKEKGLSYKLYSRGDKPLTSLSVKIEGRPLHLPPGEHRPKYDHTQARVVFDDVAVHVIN

[2] = molecular target: T1, Tyrosinase (Agaricus bisporus); experiment: Activity at mushroom tyrosinase by spectrophotometric assay in presence of hydrogen peroxide
[3] = molecular target: T1, Tyrosinase (Agaricus bisporus); experiment: Inhibition of diphenolase activity of mushroom tyrosinase using L-dopa as substrate at 0.05 mM by spectrophotometric assay
[4] = molecular target: T1, Tyrosinase (Agaricus bisporus); experiment: Inhibition of monophenolase activity of mushroom tyrosinase using L-tyrosine as substrate at 0.1 mM by spectrophotometric assay
[5] = molecular target: T1, Tyrosinase (Agaricus bisporus); experiment: Inhibition of monophenolase activity of mushroom tyrosinase using L-tyrosine as substrate at 0.05 mM by spectrophotometric assay
[6] = molecular target: T1, Tyrosinase (Agaricus bisporus); experiment: Activity at mushroom tyrosinase assessed as decrease in absorbance at 475 nm using L-dopa as substrate by spectrophotometric assay in presence of sodium periodate
[7] = molecular target: T1, Tyrosinase (Agaricus bisporus); experiment: Inhibition of diphenolase activity of mushroom tyrosinase using L-dopa as substrate at 0.1 mM by spectrophotometric assay
[8] = molecular target: T1, Tyrosinase (Agaricus bisporus); experiment: Inhibition of diphenolase activity of mushroom tyrosinase using L-dopa as substrate at 0.2 mM by spectrophotometric assay
[9] = molecular target: T1, Tyrosinase (Agaricus bisporus); experiment: Inhibition of diphenolase activity of mushroom tyrosinase using L-dopa as substrate at 9 mM by spectrophotometric assay
[10] = molecular target: T1, Tyrosinase (Agaricus bisporus); experiment: Inhibition of monophenolase activity of mushroom tyrosinase using L-tyrosine as substrate at 6 mM by spectrophotometric assay
[11] = molecular target: T1, Tyrosinase (Agaricus bisporus); experiment: Inhibition of monophenolase activity of mushroom tyrosinase using L-tyrosine as substrate at 9 mM by spectrophotometric assay
[12] = molecular target: T1, Tyrosinase (Agaricus bisporus); experiment: Inhibition of monophenolase activity of mushroom tyrosinase using L-tyrosine as substrate at 3 mM by spectrophotometric assay
[13] = molecular target: T1, Tyrosinase (Agaricus bisporus); experiment: Inhibition of diphenolase activity of mushroom tyrosinase using L-dopa as substrate at 3 mM by spectrophotometric assay
[14] = molecular target: T1, Tyrosinase (Agaricus bisporus); experiment: Inhibition of diphenolase activity of mushroom tyrosinase using L-dopa as substrate at 6 mM by spectrophotometric assay
[15] = molecular target: T1, Tyrosinase (Agaricus bisporus); experiment: Activity at mushroom tyrosinase assessed as decrease in absorbance using DOMA as substrate by oxygen consumption assay
[16] = molecular target: T1, Tyrosinase (Agaricus bisporus); experiment: Inhibition of diphenolase activity of mushroom tyrosinase using L-dopa as substrate at 1.5 mM by spectrophotometric assay
[17] = molecular target: T1, Tyrosinase (Agaricus bisporus); experiment: Inhibition of diphenolase activity of mushroom tyrosinase using L-dopa as substrate at 1 mM by spectrophotometric assay
[18] = molecular target: T1, Tyrosinase (Agaricus bisporus); experiment: Inhibition of diphenolase activity of mushroom tyrosinase using L-dopa as substrate at 0.5 mM by spectrophotometric assay
[19] = molecular target: T1, Tyrosinase (Agaricus bisporus); experiment: Activity at mushroom tyrosinase assessed as decrease in absorbance using L-dopa as substrate by oxygen consumption assay
[20] = molecular target: T1, Tyrosinase (Agaricus bisporus); experiment: Activity at mushroom tyrosinase assessed as decrease in absorbance using L-tyrosine as substrate by oxygen consumption assay
[21] = molecular target: T1, Tyrosinase (Agaricus bisporus); details: 0.15 mM
Description: Inhibition of diphenolase activity of mushroom tyrosinase using L-dopa as substrate at 0.15 mM by spectrophotometric assay

[22] = molecular target: T1, Tyrosinase (Agaricus bisporus); details: 0.15 mM; remark: listed apart in the source
Description: Inhibition of monophenolase activity of mushroom tyrosinase using L-tyrosine as substrate at 0.15 mM by spectrophotometric assay

| Structure (SMILES) | Activity [2] | inhibition [3] | inhibition [4] | inhibition [5] | inhibition [7] | Activity [15] | inhibition [16] | inhibition [17] | inhibition [18] | Activity [19] | Activity [20] | also measured |
| --- | --- | --- | --- | --- | --- | --- | --- | --- | --- | --- | --- | --- |
| O=C(CCc1ccc(O)cc1)c1c(O)cc(O)cc1O | Active | 28.3% | 17.9% | 4.2% | 46.2% | – | – | – | – | – | – | inhibition [1]: 48.5%; Activity [6]: Active; inhibition [8]: 62.6% |
| O=C(O)Cc1ccccc1 | – | – | – | – | – | – | – | – | – | – | – | inhibition [9]: 58.1%; inhibition [10]: 39.4%; inhibition [11]: 55.4%; inhibition [12]: 19.7%; inhibition [13]: 18.2%; inhibition [14]: 41.6% |
| OCc1ccc(O)cc1 | Active | – | – | – | – | Active | 38.9% | 28.4% | 15.2% | Active | Active | – |
| OCCc1ccc(O)cc1 | Active | – | – | – | – | Active | 18.3% | 18.7% | 14.3% | Active | Active | – |
| O=C(CCc1ccc(O)cc1)c1c(O)cc(O)cc1O[C@@H]1O[C@H](CO)[C@@H](O)[C@H](O)[C@H]1O | Active | 31.4% | 34% | 9% | 45.3% | Active | – | – | – | Active | Active | inhibition [21]: 52.7%; inhibition [22]: 47.7% |

— ChEMBL document CHEMBL3588790, “Identification of p-hydroxybenzyl alcohol, tyrosol, phloretin and its derivate phloridzin as tyrosinase substrates” (Bioorg Med Chem, 2015)
